Reference: ChEMBL document CHEMBL1130699, “Coprophilin: an anticoccidial agent produced by a dung inhabiting fungus” (1998)
≈ marks a conversion by molar mass, not a printed value. Calls of active or inactive are those of the source. The rule behind the calls is not given here.

Experiments:
MDBK441 [1] = assay: Compound was tested for inhibition of the growth of Eimeria tenella in MDBK 441 cell line up to concentration 25 uM; no inhibition; format: functional, cell-based; settings: Bos taurus
MDBK441 [2] = assay: Compound was tested for inhibition of the growth of Eimeria tenella in MDBK 441 cell line; format: functional; settings: Bos taurus

| MIC (MDBK441 [1]) | MIC (MDBK441 [2]) | SMILES |
| --- | --- | --- |
| inactive | – | CC1C[C@]2(C)C=C[C@H](C)[C@H](/C=C/C=C/C(=O)O)[C@H]2[C@H](C)[C@H]1O (stereo partly drawn) |
| – | 1.5 µM (≈ 0.478 µg/mL) | COC(=O)/C=C/C=C/[C@@H]1[C@H]2[C@H](C)[C@@H](O)C(C)C[C@]2(C)C=C[C@@H]1C (stereo partly drawn) |
| inactive | – | COC(=O)CCCC[C@@H]1[C@H]2[C@H](C)[C@@H](O)C(C)C[C@]2(C)CC[C@@H]1C (stereo partly drawn) |
